Values quoted from earlier work in patent US20110033519A1, “Device with Aromatase Inhibitor for the Treatment and Prevention of Uterine Fibroids and Method of Use” (priority 2009, published 2011).
Read-outs that look alike come from different tables or passages of the source.

Key:
fibroids = settings: three months
human sperm = settings: incubated in a solution of copper ions; after 120 minutes

CC(C)(C#N)c1cc(Cn2cncn2)cc(C(C)(C)C#N)c1 [Anastrozole]
reduction in fibroid volume (fibroids; oral, 1 mg/day): 56%

N#Cc1ccc(C(c2ccc(C#N)cc2)n2cncn2)cc1 [Letrozole]
reduction in fibroid volume (fibroids; study of 35 women, 2.5 mg per day orally): 45%
reduction in fibroid volume (fibroids; trial of 16 women, oral, 5 mg/day): 47%

copper ions
human sperm immotile (human sperm): Ninety-five
